Measurements as given in publication PMC11067372, “Evaluation of the antiplasmodial efficacy of synthetic 2,5-diphenyloxazole analogs of compounds naturally derived from Oxytropis lanata” (International Journal for Parasitology: Drugs and Drug …, 2024).
Like-named read-outs stand apart in the source and are kept apart here.

Experiments:
P. falciparum 3D7 = experiment: In vitro inhibition of P. falciparum 3D7 (SYBR Green I-based fluorescence assay); format: cell-based, Plasmodium falciparum; parameters: logIC50: unit not given here; details: for IC50: Plasmodium falciparum; for logIC50: base-10 log-transformed IC50 against P. falciparum 3D7
Method: (§1) The cultures were maintained in an incubator under specific conditions: 37 °C under 5% CO2 and 5% O2.
(§2) The D-sorbitol method (CAS: 50-70-4, Wako, Osaka, Japan) was employed to synchronize parasites, resulting in the attainment of ≥90% ring-stage parasites. These synchronized parasites were then utilized for the experiments within a 2-h window. The assay was performed as follows. First, 50 μL of synchronized parasites with 0.5% parasitemia and 2% hematocrit were added to individual wells of a 96-well plate. Then, 50 μL of the test compounds was introduced to each well. […] Wells containing only test compounds and erythrocytes were included for background correction. […] After the designated incubation time, 100 μL of lysis buffer containing 0.02% (v/v) SYBR Green I was added to each well, the contents of the well were mixed by pipetting, and the plate was incubated in the dark at room temperature for 2 h. […] This assay was repeated four times at each concentration, and the resulting inhibitory values represent the average from three independent trials.
(§3) The IC50 or CC50 values were determined from three independent experiments by plotting the logarithmic concentration of the compound against the percent parasite inhibition or cell growth inhibition, respectively. Nonlinear regression analysis was conducted using GraphPad Prism 10 (GraphPad Software, Inc., La Jolla, CA, USA). Comparisons between groups were evaluated using either one-way or two-way ANOVA followed by Tukey's or Fisher's multiple comparisons tests. […] The meaning of each symbol is specified in the corresponding figure legend alongside the name of the employed test.

P. falciparum K1 = experiment: In vitro inhibition of P. falciparum K1 (SYBR Green I-based fluorescence assay); format: cell-based; details: Plasmodium falciparum; multidrug-resistant strain K1; 72 h incubation; average ± SD, three independent experiments; read-out: IC50 P. falciparum K1
Method: as §1, §2, §3

[1] = In vitro toxicity to human cells (cell viability assay); format: cell-based; details: human foreskin fibroblasts (HFFs), average ± SD, three independent experiments
Method: HFF cells are selected for cytotoxicity testing in this study, providing a physiologically relevant model for the evaluation of drug interactions with human cells. […] This designation makes them a suitable model for the investigation of cellular processes and their sensitivity to toxic substances, which is crucial for the early identification of potential adverse effects of drugs during the development process.
The IC50 or CC50 values were determined from three independent experiments by plotting the logarithmic concentration of the compound against the percent parasite inhibition or cell growth inhibition, respectively. Nonlinear regression analysis was conducted using GraphPad Prism 10 (GraphPad Software, Inc., La Jolla, CA, USA). Comparisons between groups were evaluated using either one-way or two-way ANOVA followed by Tukey's or Fisher's multiple comparisons tests. A p-value of <0.05 was considered to indicate statistical significance and is denoted by an asterisk or a symbol. The meaning of each symbol is specified in the corresponding figure legend alongside the name of the employed test.

[2] = Table S2, P. falciparum 3D7, value used for SAR analysis, read-out: IC50
[3] = chloroquine-sensitive strain 3D7, 72 h incubation, average ± SD, three independent experiments, read-out: IC50 P. falciparum 3D7
[4] = 3D7, Table S1, average of three independent experiments, read-out: IC50 Mean against P. falciparum 3D7

IC50 (P. falciparum 3D7; [2])	IC50 (P. falciparum 3D7; [3])	IC50 (P. falciparum K1)	IC50 (P. falciparum 3D7; [4])	SMILES	logIC50 (P. falciparum 3D7; Table S2)	CC50 [1]
6.41 µM	6.41 ± 1.16 µM	3.91 ± 1.45 µM	–	Oc1ccccc1-c1nnc(-c2cccc(O)c2O)s1 [Compound 44]	0.8066	160 ± 62.3 µM
16.9 µM	–	–	16.9 µM	COc1ccccc1-c1nnc(-c2cccc(OC)c2OC)o1 [Compound 43]	1.228	–
–	–	–	29.9 µM	COc1cccc(-c2ncc(-c3ccccc3)o2)c1OC [Compound 25]	1.476	–
3.95 µM	3.95 ± 1.38 µM	1.74 ± 0.89 µM	–	Oc1ccccc1-c1cnc(-c2cccc(O)c2O)s1 [Compound 40]	0.597	46.3 ± 5.84 µM
–	–	–	> 200 µM	COc1ccccc1-c1cnc(-c2cccc(OC)c2OC)o1 [Compound 2]	2.301	–
3.85 µM	3.85 ± 1.87 µM	1.65 ± 0.72 µM	–	Oc1ccc(O)c(-c2cnc(-c3ccccc3)o2)c1 [Compound 7, 2-phenyl-5-(2″,5″-hydroxyphenyl)oxazole]	0.5852	54.1 ± 11 µM
54.2 µM	–	–	54.2 µM	COc1cccc(-c2ncc(-c3ccccc3N(C)C)o2)c1OC [Compound 38]	1.734	–
15 µM	–	–	15 µM	COc1ccc(OC)c(-c2cnc(-c3cc(OC)ccc3OC)o2)c1 [Compound 11]	1.177	–
–	–	–	36.6 µM	COc1cccc(-c2ncc(-c3ccccc3N)o2)c1OC [Compound 37]	1.564	–
51.1 µM	–	–	51.1 µM	COc1cccc(-c2ncc(-c3ccc(OC)c(OC)c3OC)o2)c1OC [Compound 18]	1.708	–
–	–	–	> 200 µM	COc1ccc(-c2cnc(-c3ccc(OC)cc3)o2)cc1 [Compound 20]	2.301	–
–	–	–	44.7 µM	COc1ccccc1-c1coc(-c2cccc(OC)c2OC)n1 [Compound 46]	1.65	–
12.6 µM	12.7 ± 7.63 µM	4.94 ± 2.15 µM	–	Oc1ccc(O)c(-c2cnc(-c3cc(O)ccc3O)o2)c1 [Compound 10, 2-(2′,5′-dihydroxyphenyl)-5-(2″,5″-dihydroxyphenyl)oxazole]	1.102	39.5 ± 7.45 µM
–	–	–	> 200 µM	COc1ccc(OC)c(-c2cnc(-c3cccc(OC)c3OC)o2)c1 [Compound 17]	2.301	–
3.38 µM	3.38 ± 1.46 µM	1.27 ± 0.51 µM	–	CC(=O)Oc1ccc(OC(C)=O)c(-c2cnc(-c3ccccc3)o2)c1 [Compound 9]	0.5284	56.7 ± 18.4 µM

Further lines, the molecule ahead of its results:

SMILES	IC50 (P. falciparum 3D7; [2])	IC50 (P. falciparum 3D7; [3])	IC50 (P. falciparum K1)	IC50 (P. falciparum 3D7; [4])	logIC50 (P. falciparum 3D7; Table S2)	CC50 [1]
Oc1ccccc1-c1cnc(-c2cccc(O)c2O)o1 [Compound 1, 2-(2′,3′-dihydroxyphenyl)-5-(2″-hydroxyphenyl)oxazole]	11 µM	11 ± 2.69 µM	6.17 ± 3.33 µM	–	1.042	59.6 ± 4.84 µM
COc1cccc(-c2cnc(-c3cccc(OC)c3)o2)c1 [Compound 19]	–	–	–	46.3 µM	1.665	–
COc1cccc(-c2cnc(-c3ccc(OC)c(OC)c3OC)o2)c1OC [Compound 24]	–	–	–	68 µM	1.832	–
COc1cccc(-c2ncc(-c3ccccc3[N+](=O)[O-])o2)c1OC [Compound 36]	39.6 µM	–	–	39.6 µM	1.598	–
COc1cccc(-c2ncc(-c3c(OC)cccc3OC)o2)c1OC [Compound 28]	–	–	–	125 µM	2.096	–
CC(=O)Oc1ccc(OC(C)=O)c(-c2cnc(-c3cc(OC(C)=O)ccc3OC(C)=O)o2)c1 [Compound 12]	10.2 µM	10.2 ± 4.09 µM	4.7 ± 1.69 µM	–	1.01	67.8 ± 1.39 µM
CCCOc1ccccc1-c1cnc(-c2cccc(OC)c2OC)o1 [Compound 35]	27.7 µM	–	–	27.7 µM	1.442	–
CC(=O)Oc1ccc(OC(C)=O)c(-c2ncc(-c3ccccc3OC(C)=O)o2)c1 [Compound 6]	13.4 µM	–	–	13.4 µM	1.127	–
COc1ccc(-c2cnc(-c3cccc(OC)c3OC)o2)c(OC)c1 [Compound 29]	24.9 µM	–	–	24.9 µM	1.397	–
Oc1ccc(O)c(-c2ncc(-c3ccccc3O)o2)c1 [Compound 4, 2-(2′,5′-dihydroxyphenyl)-5-(2″-hydroxyphenyl)oxazole]	6.2 µM	6.2 ± 4.23 µM	3.74 ± 1.47 µM	–	0.7924	55.4 ± 11.7 µM
COCOc1ccccc1-c1cnc(-c2cccc(OC)c2OC)o1 [Compound 33]	18.2 µM	–	–	18.2 µM	1.26	–
COc1ccccc1-c1cnc(-c2cccc(OC)c2OC)s1 [Compound 41]	–	–	–	15.5 µM	1.189	–
CC(=O)Oc1ccccc1-c1cnc(-c2cccc(OC(C)=O)c2OC(C)=O)o1 [Compound 3]	9.22 µM	9.22 ± 1.68 µM	4.7 ± 2.24 µM	–	0.9649	126 ± 31.6 µM
COc1cccc(-c2ncc(-c3ccccc3OC)o2)c1 [Compound 26]	–	–	–	> 200 µM	2.301	–
COc1cccc(-c2ncc(-c3ccccc3C)o2)c1OC [Compound 30]	–	–	–	> 200 µM	2.301	–
COc1cccc(-c2ncc(-c3ccc4ccccc4c3)o2)c1OC [Compound 14]	62.4 µM	–	–	62.4 µM	1.795	–
CCOc1ccccc1-c1cnc(-c2cccc(OC)c2OC)o1 [Compound 34]	–	–	–	> 200 µM	2.301	–
COc1ccc(OC)c(-c2cnc(-c3ccccc3OC)o2)c1 [Compound 27]	–	–	–	106 µM	2.027	–
COc1ccc(OC)c(-c2cnc(-c3ccccc3)o2)c1 [Compound 8]	–	–	–	> 200 µM	2.301	–
Oc1ccccc1-c1coc(-c2cccc(O)c2O)n1 [Compound 47]	4.63 µM	4.63 ± 1.18 µM	3.13 ± 1.21 µM	–	0.6658	71 ± 23.1 µM
COc1ccc(-c2cnc(-c3cccc(OC)c3OC)o2)cc1 [Compound 16]	–	–	–	37.9 µM	1.579	–
COc1ccc(OC)c(-c2ncc(-c3ccccc3OC)o2)c1 [Compound 5]	–	–	–	> 200 µM	2.301	–
COc1ccccc1-c1cnc(-c2c(OC)cccc2OC)o1 [Compound 22]	–	–	–	26.7 µM	1.426	–
COc1ccccc1-c1cnc(-c2ccccc2OC)o1 [Compound 13]	–	–	–	> 200 µM	2.301	–
COc1cccc(-c2cnc(-c3cccc(OC)c3OC)o2)c1 [Compound 15]	74.8 µM	–	–	74.8 µM	1.874	–
Oc1ccccc1-c1nnc(-c2cccc(O)c2O)o1 [Compound 42]	9.53 µM	9.53 ± 3.15 µM	6.19 ± 2.66 µM	–	0.9793	52.5 ± 13.2 µM
COc1ccc(-c2ncc(-c3ccccc3OC)o2)c(OC)c1 [Compound 21]	19.3 µM	–	–	19.3 µM	1.286	–
COc1cccc(-c2ncc(-c3ccccc3NC(C)=O)o2)c1OC [Compound 39]	–	–	–	> 200 µM	2.301	–
COc1ccccc1-c1nnc(-c2cccc(OC)c2OC)s1 [Compound 45]	–	–	–	> 200 µM	2.301	–
COc1cccc(-c2cnc(-c3cccc(OC)c3OC)o2)c1OC [Compound 23]	12.7 µM	–	–	12.7 µM	1.104	–
